In patent US20250228775A1, “ETHANOLIC RESINIFERATOXIN CONCENTRATE” (Gruenenthal GmbH, priority 2024, published 2025):

Legend:
[1] = system: moderate to severe pain due to osteoarthritis of the knee; conditions: one-time intraarticular dose 5 to 30 μg; cited from earlier work
[2] = system: chronic osteoarthritic knee joint pain; test: Randomized, double-blind, placebo-controlled, single-dose trial of intraarticular Resiniferatoxin (Example 3); type: in vivo, human; conditions: for subjects with severe adverse events: none considered related to investigational medicinal product or Ropivacaine
Protocol: The primary objective of this study was to compare the analgesic effects of single intraarticular injections of Resiniferatoxin (100 or 400 ng) compared to placebo, at 3 and 6 months postinjection, in participants with chronic osteoarthritic knee joint pain. Secondary objectives were to evaluate the analgesic effects of Resiniferatoxin versus placebo in terms of a responder analysis (percentage of subjects achieving ≥50% or ≥70% reduction in visual analog scale pain score) and changes in Western Ontario and McMaster Universities Arthritis Index (WOMAC) total and subscale scores (pain, physical function and stiffness). Safety and injection site pain were also evaluated.
The study was conducted as a randomized, double-blind, placebo-controlled, single-dose trial of Resiniferatoxin. Eligible patients were aged 40 to 80 years with radiographic knee osteoarthritis (Kellgren-Lawrence Grade 2-4 in the last 3 years) and a baseline visual analog scale (0-100 mm) pain score ≥40 mm on motion in the target knee, with or without pain medication. 67 subjects were randomized to treatment with either Resiniferatoxin 100 ng (n=24) or 400 ng (n=23), or placebo (n=20), administered intraarticularly into the index knee. Intraarticular Ropivacaine (5 ml, 0.5%) was administered 15 mins before investigational medicinal product. Visual analog scale scores were used to evaluate pain on motion as the average of the last 2 days in a target knee between baseline and at 3 and 6 months post injection. Injection site pain was rated (visual analog scale) from baseline (−0.5 h) up to 3 h post intraarticular injections.

[3] = single intraarticular dose 100 ng or 400 ng

C=C(C)[C@]12C[C@@H](C)[C@@]34O[C@](Cc5ccccc5)(O[C@@H]1[C@@H]3C=C(COC(=O)Cc1ccc(O)c(OC)c1)C[C@]1(O)C(=O)C(C)=C[C@@H]41)O2 [Resiniferatoxin, 4-hydroxy-3-methoxy-benzeneacetic acid, [(2S,3aR,3bS,6aR,9aR,9bR, 10R,11aR)-3a,3b,6,6a,9a,10,11,11a-octahydro-6a-hydroxy-8,10-dimethyl-11a-(1-methylethenyl)-7-oxo-2-(phenylmethyl)-7H-2,9b-epoxyazuleno[5,4-e]-1,3-benzodioxol-5-yl]methyl ester]
efficacy [1]: Preliminary efficacy was also observed
reduction in WOMAC total and subscale scores (pain, physical function and stiffness) compared to placebo ([2]; 100 ng and 400 ng, at both 3 and 6 months): greater reduction in WOMAC total and subscale scores
subjects with severe adverse events ([2]; 100 ng group (n=24)): 2 subjects
pain reduction (VAS pain on motion) compared to placebo ([2]; 100 ng or 400 ng intraarticular): greater pain reduction than subjects receiving placebo
injection site pain (procedural pain) compared to placebo ([2]; 100 ng or 400 ng intraarticular, VAS up to 3 h post injection): generally higher
subjects with severe adverse events ([2]; 400 ng group (n=23)): 3 subjects
first visit at which reduction in VAS pain on motion was observed ([2]; intention-to-treat population, first trial visit post-injection): ≤ 8 days
last visit until which reduction in VAS pain on motion lasted ([2]; intention-to-treat population, last trial visit): ≥ 6 month
time of return of injection site pain to baseline ([2]; post-injection): ≤ 3 h
analgesic onset [2, 3]: within one week of administration
duration of analgesia during follow-up [2, 3]: at least 3 months
safety and tolerability [2, 3]: good safety profile and to have been well tolerated
